Test results taken from US10179161B2, “Compositions and methods for enhancing cardiac function in the neonate” (priority 2016, dated 2019).

Assays:
[1] = system: supercomplex assembly (synthasomes); assay: synthasome levels by clear native immunoblot in adult heart mitochondria; assay type: biochemical, mice; details: 0.5 mM; n=7
Protocol: Inhibition of CyPD should […] the assembly of the ETC into supercomplexes.
Adult heart mitochondria were used to show decreased supercomplex assembly after PTP opening and increased supercomplex assembly after PTP inhibition or deletion (FIG. 1). A: Mitochondrial permeability transition was induced by 60 μM free Ca^2+ (arrow) and was inhibited by 0.5 mM ADP or 200 nM CsA (top panel). Swelling, indicating PTP opening and a fall in absorbance, is reversible after the addition of 250 μM EGTA (arrow; bottom panel). […] The experimental conditions are summarized below the blot. […] Note that the ATP synthase IGA results a white reaction product, so the shading is correct. (N=4, * p≤0.05, ** p≤0.001 by T-test).

CyPD = details: cited from earlier work
adult animals = details: 10 mg/Kg IV; cited from earlier work

| Compound | Ca2+-induced PT decrease of synthasome levels [1] | potency as a CyPD inhibitor relative to CsA (CyPD) | effects of ischemia reperfusion injury in the heart (adult animals) | K0.5 as a CyPD inhibitor (CyPD) [nM] |
| --- | --- | --- | --- | --- |
| Nc1ncnc2c1ncn2[C@@H]1O[C@H](COP(=O)(O)OP(=O)(O)O)[C@@H](O)[C@H]1O [ADP] | inhibited |  |  |  |
| Alisporivir |  | about as potent as CsA | ameliorate |  |
| CC[C@H]1C[C@H](C)[C@@]2(NC1=O)O[C@@H](C[C@H](O)[C@@H](C)CC/C=C/C=C(\C)[C@@H]1C/C=C/C=C/[C@H](O)[C@H](C)[C@@H](O)[C@@H](CCC(C)=O)C(=O)N[C@@H](C(C)C)C(=O)N[C@@H](Cc3cccc(O)c3)C(=O)N3CCC[C@H](N3)C(=O)O1)[C@H](C)[C@H](O)[C@@H]2C [Sangliferin A, Sanglifehrin A] |  | more potent |  | 2 |
